Data published in patent US20240124442A1, “TRICYCLIC-AMIDO-BICYCLIC PRMT5 INHIBITORS” (AMGEN INC., priority 2021, published 2024).

Assays:
[1] = tested on: HCT116 MTAP null cells; experiment: HCT116 MTAP null cell line proliferation / cell viability (CellTiter-Glo, 6 days); format: cell-based; conditions: 144 h; HCT116 MTAP null cells, 6 days treatment, CellTiter-Glo cell viability; read-out: HCT-116 MTAP null IC50
In short: (§1)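 CellTiter-Glo luminescence read after 6 days of compound exposure in parental and MTAP-null HCT116 cells grown in RPMI 1640/10% FBS. Dilution series: 1:3 steps, 8–9 points, top 1 or 10 μM; or 1:2 steps, 22 points, top 10 or 50 μM. IC50 = curve transit through 50% of control.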

[2] = tested on: HCT116 WT cells; experiment: HCT116 WT (parent) cell line proliferation / cell viability (CellTiter-Glo, 6 days); format: cell-based; conditions: Homo sapiens, HCT-116, 144 h, 6 days treatment
In short: as §1

| Structure (SMILES) | IC50 [1] [nM] | IC50 [2] [nM] |
| --- | --- | --- |
| CN(C(=O)c1ccc2nc(N)c3cnn(C)c3c2c1)[C@@H]1COc2cc(-c3ccnn3C)ccc21 [Example 630, 4-amino-N,1-dimethyl-N-((3S)-6-(1-methyl-1H-pyrazol-5-yl)-2,3-dihydro-1-benzofuran-3-yl)-1H-pyrazolo[4,3-c]quinoline-8-carboxamide] | 3 | 222 |
| CN(C(=O)c1ccc2nc(N)c3cnn(C)c3c2c1)[C@@H]1COc2cc(-c3ccn(C)n3)ccc21 [Example 631, 4-amino-N,1-dimethyl-N-((3S)-6-(1-methyl-1H-pyrazol-3-yl)-2,3-dihydro-1-benzofuran-3-yl)-1H-pyrazolo[4,3-c]quinoline-8-carboxamide] | 23 | 2530 |
| Cc1cc(-c2ccc3c(c2)OC[C@H]3N(C)C(=O)c2ccc3nc(N)c4cnn(C)c4c3c2)co1 [Example 632, 4-amino-N,1-dimethyl-N-((3S)-6-(5-methyl-3-furanyl)-2,3-dihydro-1-benzofuran-3-yl)-1H-pyrazolo[4,3-c]quinoline-8-carboxamide] | 26 | 841 |
| Cc1cc(-c2ccc3c(c2)OC[C@H]3N(C)C(=O)c2ccc3nc(N)c4cnn(C)c4c3c2)on1 [Example 633, 4-amino-N,1-dimethyl-N-((3S)-6-(3-methyl-1,2-oxazol-5-yl)-2,3-dihydro-1-benzofuran-3-yl)-1H-pyrazolo[4,3-c]quinoline-8-carboxamide] | 8 | 672 |
| CN(C(=O)c1ccc2nc(N)c3cnn(C)c3c2c1)[C@@H]1COc2cc(C3=CCCOC3)ccc21 [Example 634, 4-amino-N-((3S)-6-(5,6-dihydro-2H-pyran-3-yl)-2,3-dihydro-1-benzofuran-3-yl)-N,1-dimethyl-1H-pyrazolo[4,3-c]quinoline-8-carboxamide] | 8 | 524 |
| CN(C(=O)c1ccc2nc(N)c3cnn(C)c3c2c1)[C@@H]1COc2cc(-c3cscn3)ccc21 [Example 635, 4-amino-N,1-dimethyl-N-((3S)-6-(1,3-thiazol-4-yl)-2,3-dihydro-1-benzofuran-3-yl)-1H-pyrazolo[4,3-c]quinoline-8-carboxamide] | 9 | 613 |
| Cc1ncc(-c2ccc3c(c2)OC[C@H]3N(C)C(=O)c2ccc3nc(N)c4cnn(C)c4c3c2)cn1 [Example 636, 4-amino-N,1-dimethyl-N-((3S)-6-(2-methyl-5-pyrimidinyl)-2,3-dihydro-1-benzofuran-3-yl)-1H-pyrazolo[4,3-c]quinoline-8-carboxamide] | 13 | 1950 |
| CN(C(=O)c1ccc2nc(N)c3cnn(C)c3c2c1)[C@@H]1COc2cc(-c3cnc(=O)[nH]c3)ccc21 [Example 637, 4-amino-N,1-dimethyl-N-((3S)-6-(2-oxo-1,2-dihydro-5-pyrimidinyl)-2,3-dihydro-1-benzofuran-3-yl)-1H-pyrazolo[4,3-c]quinoline-8-carboxamide] | 339 | 32100 |
| CN(C(=O)c1ccc2nc(N)c3cnn(C)c3c2c1)[C@@H]1COc2cc(-c3ccc(F)nc3)ccc21 [Example 638, 4-amino-N-((3S)-6-(6-fluoro-3-pyridinyl)-2,3-dihydro-1-benzofuran-3-yl)-N,1-dimethyl-1H-pyrazolo[4,3-c]quinoline-8-carboxamide] | 6 | 591 |
| CCn1cc(-c2ccc3c(c2)OC[C@H]3N(C)C(=O)c2ccc3nc(N)c4cnn(C)c4c3c2)cn1 [Example 639, 4-amino-N-((3S)-6-(1-ethyl-1H-pyrazol-4-yl)-2,3-dihydro-1-benzofuran-3-yl)-N,1-dimethyl-1H-pyrazolo[4,3-c]quinoline-8-carboxamide] | 15 | 1400 |
| CN(C(=O)c1ccc2nc(N)c3cnn(C)c3c2c1)[C@@H]1COc2cc(-c3cnn(C4CC4)c3)ccc21 [Example 640, 4-amino-N-((3S)-6-(1-cyclopropyl-1H-pyrazol-4-yl)-2,3-dihydro-1-benzofuran-3-yl)-N,1-dimethyl-1H-pyrazolo[4,3-c]quinoline-8-carboxamide] | 16 | 2050 |
| CN(C(=O)c1ccc2nc(N)c3cnn(C)c3c2c1)[C@@H]1COc2cc(-c3cc(F)cc(F)c3)ccc21 [Example 641, 4-amino-N-((3S)-6-(3,5-difluorophenyl)-2,3-dihydro-1-benzofuran-3-yl)-N,1-dimethyl-1H-pyrazolo[4,3-c]quinoline-8-carboxamide] | 42 | 1600 |
| CN(C(=O)c1ccc2nc(N)c3cnn(C)c3c2c1)[C@@H]1COc2cc(-c3ccc(F)nc3F)ccc21 [Example 642, 4-amino-N-((3S)-6-(2,6-difluoro-3-pyridinyl)-2,3-dihydro-1-benzofuran-3-yl)-N,1-dimethyl-1H-pyrazolo[4,3-c]quinoline-8-carboxamide] | 5 | 535 |
| CN(C(=O)c1ccc2nc(N)c3cnn(C)c3c2c1)[C@@H]1COc2cc(-c3ccnc(F)c3F)ccc21 [Example 643, 4-amino-N-((3S)-6-(2,3-difluoro-4-pyridinyl)-2,3-dihydro-1-benzofuran-3-yl)-N,1-dimethyl-1H-pyrazolo[4,3-c]quinoline-8-carboxamide] | 5 | 228 |
| CN(C(=O)c1ccc2nc(N)c3cnn(C)c3c2c1)[C@@H]1COc2cc(-c3cnc4c(c3)CC(=O)N4)ccc21 [Example 644, 4-amino-N,1-dimethyl-N-((3S)-6-(2-oxo-2,3-dihydro-1H-pyrrolo[2,3-b]pyridin-5-yl)-2,3-dihydro-1-benzofuran-3-yl)-1H-pyrazolo[4,3-c]quinoline-8-carboxamide] | 27 | 3560 |
| CN(C(=O)c1ccc2nc(N)c3cnn(C)c3c2c1)[C@@H]1COc2cc(-c3cc(C(F)(F)F)[nH]n3)ccc21 [Example 645, 4-amino-N,1-dimethyl-N-((3S)-6-(5-(trifluoromethyl)-1H-pyrazol-3-yl)-2,3-dihydro-1-benzofuran-3-yl)-1H-pyrazolo[4,3-c]quinoline-8-carboxamide] | 24 | 1470 |
| CNC(=O)c1ccc(-c2ccc3c(c2)OC[C@H]3N(C)C(=O)c2ccc3nc(N)c4cnn(C)c4c3c2)cn1 [Example 646, 4-amino-N,1-dimethyl-N-((3S)-6-(6-(methylcarbamoyl)-3-pyridinyl)-2,3-dihydro-1-benzofuran-3-yl)-1H-pyrazolo[4,3-c]quinoline-8-carboxamide] | 3 | 329 |
| CC(=O)Nc1ccc(-c2ccc3c(c2)OC[C@H]3N(C)C(=O)c2ccc3nc(N)c4cnn(C)c4c3c2)cn1 [Example 647, N-((3S)-6-(6-acetamido-3-pyridinyl)-2,3-dihydro-1-benzofuran-3-yl)-4-amino-N,1-dimethyl-1H-pyrazolo[4,3-c]quinoline-8-carboxamide] | 8 | 582 |
| CN(C(=O)c1ccc2nc(N)c3cnn(C)c3c2c1)[C@@H]1COc2cc(-c3cccc(C(F)(F)F)n3)ccc21 [Example 648, 4-amino-N,1-dimethyl-N-((3S)-6-(6-(trifluoromethyl)-2-pyridinyl)-2,3-dihydro-1-benzofuran-3-yl)-1H-pyrazolo[4,3-c]quinoline-8-carboxamide] | 30 | 1170 |
| CN(C(=O)c1ccc2nc(N)c3cnn(C)c3c2c1)[C@@H]1COc2cc(-c3cccnc3C(F)(F)F)ccc21 [Example 649, 4-amino-N,1-dimethyl-N-((3S)-6-(2-(trifluoromethyl)-3-pyridinyl)-2,3-dihydro-1-benzofuran-3-yl)-1H-pyrazolo[4,3-c]quinoline-8-carboxamide] | 18 | 1040 |
| CN(C(=O)c1ccc2nc(N)c3cnn(C)c3c2c1)[C@@H]1COc2cc(-c3cnccc3C(F)(F)F)ccc21 [Example 650, 4-amino-N,1-dimethyl-N-((3S)-6-(4-(trifluoromethyl)-3-pyridinyl)-2,3-dihydro-1-benzofuran-3-yl)-1H-pyrazolo[4,3-c]quinoline-8-carboxamide] | 8 | 447 |
| CN(C(=O)c1ccc2nc(N)c3cnn(C)c3c2c1)[C@@H]1COc2cc(-c3cncc(C(F)(F)F)c3)ccc21 [Example 651, 4-amino-N,1-dimethyl-N-((3S)-6-(5-(trifluoromethyl)-3-pyridinyl)-2,3-dihydro-1-benzofuran-3-yl)-1H-pyrazolo[4,3-c]quinoline-8-carboxamide] | 7 | 724 |
| CN(C(=O)c1ccc2nc(N)c3cnn(C)c3c2c1)[C@@H]1COc2cc(-c3ccc(C(F)(F)F)cn3)ccc21 [Example 652, 4-amino-N,1-dimethyl-N-((3S)-6-(5-(trifluoromethyl)-2-pyridinyl)-2,3-dihydro-1-benzofuran-3-yl)-1H-pyrazolo[4,3-c]quinoline-8-carboxamide] | 6 | 291 |
| CN(C(=O)c1ccc2nc(N)c3cnn(C)c3c2c1)[C@@H]1COc2cc(-c3c(C(F)(F)F)cnn3C)ccc21 [Example 653, 4-amino-N,1-dimethyl-N-((3S)-6-(1-methyl-4-(trifluoromethyl)-1H-pyrazol-5-yl)-2,3-dihydro-1-benzofuran-3-yl)-1H-pyrazolo[4,3-c]quinoline-8-carboxamide] | 19 | 735 |
| CN(C(=O)c1ccc2nc(N)c3cnn(C)c3c2c1)[C@@H]1COc2cc(-c3cc(C(F)(F)F)nn3C)ccc21 [Example 654, 4-amino-N,1-dimethyl-N-((3S)-6-(1-methyl-3-(trifluoromethyl)-1H-pyrazol-5-yl)-2,3-dihydro-1-benzofuran-3-yl)-1H-pyrazolo[4,3-c]quinoline-8-carboxamide] | 10 | 1000 |
